Experimental data: BindingDB's records for doi:10.1016/s0960-894x(02)00627-3 (Keio University, 2002)

Assays:
[1] = target: alpha-L-fucosidase (Bos taurus); assay: Inhibition of bovine kidney alpha-L-fucosidase
[2] = target: alpha-L-fucosidase (Bos taurus); assay: Binding affinity against alpha-L-fucosidase in bovine kidney was determined
[3] = target: alpha-L-fucosidase (Bos taurus); assay: as above; remark: listed apart in the source

Work on `CCCCCCCCCNC1CC(C)C(O)C(O)C1O` [(1S,2S,3R)-4-Methyl-6-nonylamino-cyclohexane-1,2,3-triol] yielded an IC50 [1] of 240 nM and a Ki [2] of 110 nM.

Work on `CCNC1CC(C)C(O)C(O)C1O` [(1R,2S,3S)-4-Ethylamino-6-methyl-cyclohexane-1,2,3-triol] yielded an IC50 [1] of 21000 nM and a Ki [2] of 180 nM.

For `CCCCNC1=NC2CC(C)C(O)C(O)C2O1` [(6R,7S,7aS)-2-Butylamino-5-methyl-3a,4,5,6,7,7a-hexahydro-benzooxazole-6,7-diol], the IC50 [1] was 140000 nM.

In the case of `CC1CC2N=C(Nc3ccccc3)OC2C(O)C1O` [(6R,7S,7aS)-5-Methyl-2-phenylamino-3a,4,5,6,7,7a-hexahydro-benzooxazole-6,7-diol], the IC50 [1] is reported as 7600 nM.

For `CCCCNC1CC(C)C(O)C(O)C1O` [(1R,2S,3S)-4-Butylamino-6-methyl-cyclohexane-1,2,3-triol], the IC50 [1] was 920 nM and the Ki [2] was 74 nM.

`CC1CC(NCCc2ccccc2)C(O)C(O)C1O` [(1S,2S,3R)-4-Methyl-6-phenethylamino-cyclohexane-1,2,3-triol] gave an IC50 [1] of 240 nM and a Ki [2] of 32 nM.

Work on `CCCCCCCNC1CC(C)C(O)C(O)C1O` [(1R,2S,3S)-4-Heptylamino-6-methyl-cyclohexane-1,2,3-triol] yielded an IC50 [1] of 270 nM and a Ki [2] of 48 nM.

`CC1CC2N=C(NCc3ccccc3)OC2C(O)C1O` [(6R,7S,7aS)-2-Benzylamino-5-methyl-3a,4,5,6,7,7a-hexahydro-benzooxazole-6,7-diol] gave an IC50 [1] of 72000 nM.

`CC1CC(NCc2ccccc2)C(O)C(O)C1O` [(1R,2S,3S)-4-Benzylamino-6-methyl-cyclohexane-1,2,3-triol] gave an IC50 [1] of 1000 nM and a Ki [3] of 69 nM.
